Reference: patent US11051513B2, “Pyridone compounds and agricultural and horticultural fungicides containing the same as active ingredients” (MITSUI CHEMICALS AGRO, INC., priority 2017, dated 2021)

Assays:
Puccinia recondita = assay: Test Example E: Brown rust on wheat; format: in vivo; conditions: 250 ppm sprayed (2.5 ml/pot) on wheat (Norin 61), disease development 7 to 10 days after inoculation
Botrytis cinerea = assay: Test Example B: Gray mold on tomato; conditions: in Solanum lycopersicum, read-out: control value
Protocol: (§1) Disease development in Test Examples described below was evaluated in increments of 0.05 by setting 0 as no incidence of disease and 3 as disease development in a plant of untreated group. Further, control values were calculated using the following equation based on disease development.
(§2) <Control Value> Control value=100{1−(n/3)}
(§3) n=Disease development of each treated group
Seeds of a test plant (tomato variety: Oogata Fukuju) were planted and cultivated until three to five first leaves (true leaves) appeared. In the test, the inventive compounds were dissolved into a dimethyl sulfoxide-methanol mixture solution (volume ratio: 9/1), and the resultant solutions were diluted with well water to a concentration of 250 ppm. The thus-obtained dilutions were sprayed to the test plant (2.5 ml/pot). After the dilutions dried, a conidial suspension (4-8×10^5 conidia/ml) of Botrytis cinerea was inoculated to the plant by spraying. After the inoculation, the plant was kept in a mist chamber at room temperature of 20 to 23° C. for about 48 hours to promote the onset of disease. The disease development was investigated 2 to 3 days after the inoculation, and the effectiveness of the dilutions was evaluated.

Alternaia brassicicola = assay: Test Example C: Alternaria sooty spot on cabbage; conditions: Brassica oleracea, read-out: control value
Protocol: as §1, §2, §3
Seeds of a test plant (cabbage variety: Shikidori) were planted and cultivated until the cotyledons extended. In the test, the inventive compounds were dissolved into a dimethyl sulfoxide-methanol mixture solution (volume ratio: 9/1), and the resultant solutions were diluted with well water to a concentration of 250 ppm. The thus-obtained dilutions were sprayed to the test plant (2.5 ml/pot). After the dilutions dried, a conidial suspension (4-8×10^5 conidia/ml) of Alternaia brassicicola was inoculated to the plant by spraying. After the inoculation, the plant was kept in a mist chamber at room temperature of 20 to 23° C. for about 48 hours to promote the onset of disease. The disease development was investigated 2 to 3 days after the inoculation, and the effectiveness of the dilutions was evaluated.

Magnaporthe grisea = assay: whole plant or invertebrate; format: in vivo; conditions: Pyricularia oryzae, in Oryza sativa, read-out: control value
[1] = tested on: Colletotrichum orbiculare; assay: Test Example H: Anthracnose on cucumber; conditions: in Cucumis sativus, read-out: control value
Protocol: as §1, §2, §3
Seeds of a test plant (cucumber variety: Sagami Hanjiro) were planted and cultivated until the first leaf appeared. In the test, the inventive compounds were dissolved into a dimethyl sulfoxide-methanol mixture solution (volume ratio: 9/1), and the resultant solutions were diluted with well water to a concentration of 250 ppm. The thus-obtained dilutions were sprayed to the test plant (2.5 ml/pot). After the dilutions dried, a conidial suspension (2-4×10^5 conidia/ml) of Colletotrichum orbiculare was inoculated to the plant by spraying. After the inoculation, the plant was kept in a mist chamber at room temperature of 20 to 23° C. for about 24 hours to promote the onset of disease. The disease development was investigated 6 to 10 days after the inoculation, and the effectiveness of the dilutions was evaluated.

[2] = tested on: Blumeria graminis f. sp. hordei; assay: Test Example D: Powdery mildew on barley; conditions: in Hordeum vulgare, read-out: control value
Protocol: as §1, §2, §3
Seeds of a test plant (barley variety: Akashinriki) were planted and cultivated until the first leaves appeared. In the test, the inventive compounds were dissolved into a dimethyl sulfoxide-methanol mixture solution (volume ratio: 9/1), and the resultant solutions were diluted with well water to a concentration of 250 ppm. The thus-obtained dilutions were sprayed to the test plant (2.5 ml/pot). After the dilutions dried, conidia of Blumeria graminis f. sp. hordei were inoculated to the plant by shaking off. The disease development was investigated 6 to 10 days after the inoculation, and the effectiveness of the dilutions was evaluated.

Measured: pest or weed control at 250 ppm

CCN1C(=O)CCC(c2cc(F)cc(F)c2Cl)=C1c1ccc(F)cc1 [compound 11, 5-(2-chloro-3,5-difluorophenyl)-1-ethyl-6-(4-fluorophenyl)-3,4-dihydropyridin-2(1H)-one]
> 50%: all assays above

CCn1c(-c2ccc(F)cc2)c(-c2cc(F)cc(F)c2Cl)ccc1=O [compound 12, 5-(2-chloro-3,5-difluorophenyl)-1-ethyl-6-(4-fluorophenyl)pyridin-2(1H)-one]
> 50%: all assays above

CCn1c(-c2ccc(F)cc2)c(-c2cc(F)cc(F)c2Cl)cc(Cl)c1=O [compound 13, 3-chloro-5-(2-chloro-3,5-difluorophenyl)-1-ethyl-6-(4-fluorophenyl)pyridin-2(1H)-one]
> 50%: all assays above

CCn1c(-c2ccc(F)cc2)c(-c2cc(F)cc(F)c2Cl)cc(Br)c1=O [compound 14, 3-bromo-5-(2-chloro-3,5-difluorophenyl)-1-ethyl-6-(4-fluorophenyl)pyridin-2(1H)-one]
> 50%: all assays above

CCn1c(-c2ccc(F)cc2)c(-c2cc(F)cc(F)c2Cl)cc(C)c1=O [compound 27, 5-(2-Chloro-3,5-difluorophenyl)-1-ethyl-6-(4-fluorophenyl)-3-methylpyridin-2(1H)-one]
> 50%: all assays above

O=C1CCC(c2cc(F)cc(F)c2Cl)=C(c2ccc(F)cc2)N1CC(F)F [compound 29, 5-(2-chloro-3,5-difluorophenyl)-1-(2,2-difluoroethyl)-6-(4-fluorophenyl)-3,4-dihydropy ridin-2(1H)-one]
> 50%: Puccinia recondita | Magnaporthe grisea | [1] | [2]

O=c1ccc(-c2cc(F)cc(F)c2Cl)c(-c2ccc(F)cc2)n1CC(F)F [compound 30, 5-(2-chloro-3,5-difluorophenyl)-1-(2,2-difluoroethyl)-6-(4-fluorophenyl)pyridin-2(1H)-one]
> 50%: all assays above

O=c1c(Cl)cc(-c2cc(F)cc(F)c2Cl)c(-c2ccc(F)cc2)n1CC(F)F [compound 31, 3-chloro-5-(2-chloro-3,5-difluorophenyl)-1-(2,2-difluoroethyl)-6-(4-fluorophenyl)pyridin-2(1H)-one]
> 50%: all assays above

CCn1c(-c2ccc(F)cc2)c(-c2cc(OC)ccc2Cl)ccc1=O [compound 33, 5-(2-chloro-5-methoxyphenyl)-1-ethyl-6-(4-fluorophenyl)pyridin-2(1H)-one]
> 50%: all assays above

CCn1c(-c2ccc(F)cc2)c(-c2cc(OC)ccc2Cl)cc(Cl)c1=O [compound 44, 3-Chloro-5-(2-chloro-5-methoxyphenyl)-1-ethyl-6-(4-fluorophenyl)pyridin-2(1H)-one]
> 50%: all assays above

CCn1c(-c2ccc(F)cc2)c(-c2cc(OCOC)ccc2Cl)cc(Cl)c1=O [compound 248, 3-chloro-5-(2-chloro-5-(methoxymethoxy)phenyl)-1-ethyl-6-(4-fluorophenyl)pyridin-2(1H)-one]
> 50%: all assays above

CCn1c(-c2ccc(F)cc2)c(-c2cccnc2Cl)ccc1=O [compound 288, 2′-chloro-1-ethyl-2-(4-fluorophenyl)-[3,3′-bipyridin]-6(1H)-one]
> 50%: all assays above

CCn1c(-c2ccc(F)cc2)c(-c2cccnc2Cl)cc(Cl)c1=O [compound 291, 2′,5-dichloro-1-ethyl-2-(4-fluorophenyl)-[3,3′-bipyridin]-6(1H)-one]
> 50%: all assays above

CCn1c(-c2ccc(F)cc2)c(-c2cc(O)ccc2Cl)cc(Cl)c1=O [compound 340, 3-chloro-5-(2-chloro-5-hydroxyphenyl)-1-ethyl-6-(4-fluorophenyl)pyridin-2(1H)-one]
> 50%: all assays above
